Source: patent US20110130374A1, “Small Pyrimidine Derivatives and Methods of Use Thereof” (BIOSEARCH(2007) LTD., priority 2009, published 2011)
Read-outs that look alike come from different tables or passages of the source.

Legend:
A375 melanoma cells [1] = assay: Soft agar colony formation, A375 melanoma cells; format: cell-based; details: 14 days, MTT; for soft agar colony formation: A375 melanoma cells
Method: The assay was done using CYTOSELECT™ 96-Well In Vitro Tumor Sensitivity Assay kit from Cell Biolabs, Inc. (San-Diego, Calif.). The cells were grown for 14 days with RPMI and 10% FBS medium in the presence of the indicated concentration of Compound 1 (PRT7000467). The quantification of the colony formation on soft agar was done using MTT reagent after solubilization of the agar (all the materials are supplied in the kit). The IC50 value was calculated using Prism software.

A375 melanoma cells [2] = assay: Transwell cell migration assay, A375 melanoma cells; format: cell-based; details: Homo sapiens, A-375
Method: A375 melanoma cells (CRL-1619, American Type Culture Collection (“ATCC”), Manassas Va., USA)) grown in RPMI medium supplement with 10% FBS were starved for 24 hours in FBS free medium. After starvation of 24 hr, 5×10^4 cells in FBS free medium were placed in the upper chamber of 24-well, Transwell apparatus (CORNING TRANS WELL® polycarbonate membrane inserts, 5 μm pore size) with solvent (DMSO/PEG400) or different concentrations of Compound 1 (PRT7000467), Compound 2 (PRT7041128), or Compound 3 (PRT7081582). Medium containing FBS and compounds was added to the bottom chamber. Twenty-four hours later the melanoma cells from the upper chamber were removed with a cotton swab. Cells that migrated to the lower side of the membrane were stained with Calcein-AM (Sigma) and images were taken with fluorescence microscope. The number of migrating cells was quantified by ImageJ software and the IC50 values were calculated using Prism software (Graphpad) (FIG. 1A,1E).
A375 (melanoma) (CRL-1619, ATCC, Manassas, Va., USA), A431 (melanoma) (CRL-2592, ATCC, Manassas, Va., USA), A2058 (melanoma) (CRL-11147, ATCC, Manassas, Va., USA), MDA-MB-231 (breast) (HTB-26, ATCC, Manassas, Va., USA), LS175T (colon) (ATCC, Manassas, Va., USA), HT29 (colon) (HTB-38, ATCC, Manassas, Va., USA), PC3 (prostate) (CRL-1435, ATCC, Manassas, Va., USA), Panc03.27 (pancreatic) (ATCC, Manassas, Va., USA), 4T1 (breast-mouse) (CRL-2539, ATCC, Manassas. Va., USA), D122 (lung-mouse) (the Weizmann Institute of Science), D122-luc (lung-mouse) (the Weizmann Institute of Science), and B16 F10.9 (melanoma-mouse) cells (Caliper Life Sciences, Hopkinton Mass.), were grown in RPMI medium supplemented with 10% FBS. HUVEC cells were grown in Endothelial Cell Growth Medium 2 and THP1 cells were grown in RPMI medium supplemented with 10% FBS, 2 mM L-Glutamine, 1.5 g/L sodium bicarbonate, 10 mM Hepes, 1 mM sodium pyruvate, 4.5 g/L glucose and 0.05 mM 2-mercaptoethanol. The cells were starved for 24 hours in medium without FBS. At the end of the starvation, 5×10^4 cells in medium without FBS were placed in the upper chamber of 24-well, Transwell apparatus (CORNING TRANSWELL® polycarbonate membrane inserts, 5 μm pore size for […] and THP1 cells and 8 μm pore size for all the other cells) with solvent (DMSO/PEG400) or different concentrations of compound 1 (PRT7000467). Medium with FBS and compounds was added to the bottom chamber. Twenty-four hours later the cells from the upper chamber were removed with a cotton swab. Cells that migrated to the lower side of the membrane were stained with Calcein-AM (Sigma) and images were taken with a fluorescence microscope. The number of migrating cells was quantified by ImageJ software and the IC50 values were calculated using Prism software (Graphpad).

oxazolone-induced DTH = assay: Oxazolone-induced delayed-type hypersensitivity (DTH), ear swelling; format: in vivo, BALB/c mice; details: oral, 1 hour before oxazolone challenge; compared with the control (FIG. 5)
Excerpt: Anti inflammatory assay A delayed-type hypersensitivity (DTH) reaction is an expression of cell-mediated immunity and plays a major role in the pathology and chronicity of many inflammatory disorders. Delayed-type hypersensitivity (DTH) reactions can be induced by various allergens, including oxazolone, 2,4-dinitrofluorobenzene (DNFB) and sheep red blood cells (SRBCs). One of the most characteristic DTH phenomenons is contact hypersensitivity, which is characterized by swelling and by increased tissue levels of cytokines. Contact hypersensitivity (CHS) is a T cell-mediated immune reaction in response to cutaneous sensitization and challenge with reactive haptens that are capable of binding directly to soluble and cell-associated proteins and recognized by T cells in the context of self-MHC products. The cells that recognize antigen-protein complex in the skin are the Langerhans cells (LCs). […]
Ear swelling response will be determined by ear thickness measured with a micrometer before and 24 hours after oxazolone challenge and reported as the mean change in ear thickness (ΔT±S.E.M.). Percent suppression of ear swelling response will be calculated as % suppression=[1−(ΔT of sensitized mice exposed to experimental treatment/ΔT of sensitized mice exposed to vehicle treatment)]×100.

[3] = A375 melanoma cells, Transwell 5 μm pore, 24 h, Example 3 (FIGS. 1A, 1E), read-out: IC50 in the migration assay

Structure (SMILES) | LD50 in the soft agar colony formation assay (A375 melanoma cells [1]; A375 cells) [µM] | soft agar colony formation (A375 melanoma cells [1]) | IC50 (A375 melanoma cells [2]; A375, Melanoma, reexamined, Table 1, 6 repeats, read-out: IC50 (μM), Transwell migration) [µM] | IC50 (A375 melanoma cells [2]; [3]) [µM] | anti-inflammatory activity (ear swelling response) (oxazolone-induced DTH)
Cc1cc(C)nc(NS(=O)(=O)c2ccc(NC(=O)/C(=C\c3cccs3)NC(=O)c3cccs3)cc2)n1 [Compound 1] | 2.8 to 5.6 | inhibits soft agar colony formation | 1.7 | 5.7 | same anti-inflammatory activity as the control
Cc1cc(S(=O)(=O)Nc2ncccn2)ccc1NC(=O)/C(=C\c1cccs1)NC(=O)c1cccs1 [Compound 3] | – | inhibit soft agar colony formation | – | 1.41 | same anti-inflammatory activity as the control
